Reference: US20200405752A1, “ANTITUMOR AGENT, ANTITUMOR EFFECT ENHANCER, AND ANTITUMOR KIT” (FUJIFILM Corporation, priority 2018, published 2020)

System: human cholangiocarcinoma-derived cell line HuCC-T1
Test: Cell viability (CellTiter Glo) of HuCC-T1 in combination with cisplatin
Format: cell-based
Conditions: for viability at 0.0015 µM / viability at 0.0046 µM / viability at 0.0137 µM / viability at 0.0412 µM / viability at 0.1235 µM / viability at 0.3704 µM / viability at 1.1111 µM / viability at 3.3333 µM / viability at 10 µM / IC50: Homo sapiens; for viability at 0.0015 µM / viability at 0.0046 µM / viability at 0.0137 µM / viability at 0.0412 µM / viability at 0.1235 µM / viability at 0.3704 µM / viability at 1.1111 µM / viability at 3.3333 µM / viability at 10 µM: HuCCT-1, 72 h, with cisplatin 10 μmol/L, 3 days; for viability at 0.0015 µM: test substance 1.5 nM; for viability at 0.0046 µM: test substance 4.6 nM; for viability at 0.0137 µM: test substance 13.7 nM; for viability at 0.0412 µM: test substance 41.2 nM; for viability at 0.1235 µM: test substance 123.5 nM; for viability at 0.3704 µM: test substance 370.4 nM; for viability at 1.1111 µM: test substance 1111.1 nM; for viability at 3.3333 µM: test substance 3333.3 nM; for viability at 10 µM: test substance 10000.0 nM; for IC50: HuCCT-1, used in combination with cisplatin (10 μmol/L, Table 8); for CI: combination with cisplatin
Text: On the combinational effect of the embodiment of the invention, the results of evaluation using a combination index (CI) which is a quantitative index of the combinational effect are shown. The CI can be calculated by the following equation according to Cancer Research, 2010, Vol. 70, pp. 440 to 446.
That is, in a case where the drugs to be used in combination are drug 1 and drug 2, the CI at a certain drug concentration is
CI={(cell viability in case of using drug 1 and drug 2 in combination)/100}/{[(cell viability in case of using drug 1)/100]×[(cell viability in case of using drug 2)/100]}
Evaluation of antitumor activity against human cholangiocarcinoma-derived cell line HuCC-T1 in combination with cisplatin
Furthermore, the antitumor activity against the human cholangiocarcinoma-derived cell line HuCC-T1 in combination with cisplatin was evaluated in the same manner as in Test Example 1.
Gemcitabine, cisplatin, and methanesulfonate of Compound A were used as test substances.
Gemcitabine hydrochloride (manufactured by Plantex Co., Ltd.) dissolved in DMSO was used as gemcitabine. Cisplatin (Cat. #039-20091, manufactured by Wako Pure Chemical Industries, Ltd.) dissolved in serum-free RPMI-1640 medium (Cat. #11875-119, manufactured by Thermo Fisher Scientific Inc.) was used as cisplatin.
Human cholangiocarcinoma cell line HuCC-T1 cells were subcultured in RPMI-1640 medium supplemented with 10% serum (Cat. #10437-028, manufactured by Thermo Fisher Scientific Inc.). During this test, all cell cultures were carried out in a CO2 incubator (set to 37° C. and 5% CO2, saturated with water vapor). The culture was diluted with a 10% serum-supplemented medium to a cell density of 15000 cells/well/100 μL and the cells were seeded on a 96-well plate. On the next day, the culture supernatant of each well was discarded, followed by washing twice with 150 μL of serum-free medium, and 100 μL of serum-free medium was added thereto, followed by culturing for 3 days.
The methanesulfonate of Compound A and gemcitabine were dissolved in DMSO to prepare […] DMSO solutions thereof. The thus-prepared DMSO solutions were diluted sequentially with DMSO to prepare DMSO solutions having a final treatment concentration of 1000-fold dilution. Cisplatin was dissolved in serum-free medium to prepare a cisplatin solution 60 μmol/L. The DMSO diluted solutions of Compound A and gemcitabine were diluted with the cisplatin solution (60 μmol/L) to prepare treatment liquids having a final treatment concentration of 6-fold dilution. Compound A and gemcitabine were used with a maximum concentration of 10 μmol/L at a common ratio of 1/3 and 9 concentrations in combination with cisplatin.
20 μL of Compound A or gemcitabine diluted with the cisplatin solution (60 μmol/L) was added to each well. In addition, a group in which only a solvent containing no drug was added to wells in which cells were seeded (positive control), and a group in which only a solvent containing no drug was added to wells containing only a medium (negative control) were provided. All groups were set to n=3 well.
The cells were cultured for 3 days after the addition of the drug, and the cell viability was evaluated using a CellTiter Glo (registered trademark) Reagent (Cat. #G7570, manufactured by Promega Corporation) with the intracellular ATP level as an index. The concentration that inhibits cell viability by 50% (IC50 value) was calculated using XLFit software Ver.3 (registered trademark, manufactured by CTC Laboratory Systems Corporation).
The cell viability of each well was determined with the luminescence signal level of the negative control being 0% cell viability and the luminescence signal level of the positive control being 100% cell viability. The average value and standard deviation of the cell viability of each treatment group were calculated to prepare Table 8.

SMILES	viability at 0.0015 µM [%]	viability at 0.0046 µM [%]	viability at 0.0137 µM [%]	viability at 0.0412 µM [%]	viability at 0.1235 µM [%]	viability at 0.3704 µM [%]	viability at 1.1111 µM [%]	viability at 3.3333 µM [%]	viability at 10 µM [%]	IC50 [µM]	CI
Nc1ccn([C@@H]2O[C@H](CO)[C@@H](O)C2(F)F)c(=O)n1 [Gemcitabine]	114	113	116	113	116	113	103	83	56	≥ 10	0.90
Nc1ccn([C@@H]2S[C@H](CO)[C@@H](O)[C@@H]2F)c(=O)n1 [Compound A, 1-(2-deoxy-2-fluoro-4-thio-β-D-arabinofuranosyl)cytosine]	117	114	110	96	66	44	40	36	34	0.261	0.34
